Laboratory results as given in patent publication US20240174648A1, “Small Molecule Compound” (Technoderma Medicines Pte Ltd, priority 2019, published 2024).

Columns and labels:
Tyk2 = Tyk2 (Homo sapiens, UniProt P29597); assay: JAK kinase inhibition assay (EZ Reader, peptide substrate phosphorylation) - Tyk2; format: biochemical; conditions: Tyk2 kinase 1 nM; 8 concentration points, max 10 μM
From the text: (§1) Assay for Identifying Inhibitory Effects of Compounds on JAK Kinases
(§2) Janus kinases (JAK), including JAK1, JAK2, JAK3 and Tyk2, transduce a cytokine-mediated signal through a JAK-STAT pathway. The kinases are 120-140 kDa in size and have 7 determined homology regions: JH1 to JH7. JH1 is an important region for enzymatic activity and has typical characteristics of tyrosine kinases. Phosphorylation of tyrosine leads to a change in the conformation of JAK protein, thereby promoting binding of substrate. The JAK-STAT system includes three main parts: receptors penetrating a cell membrane, Janus kinases binding to the receptors, and signal transducers and activators of transcription (STAT) for transmitting signals to a nucleus and DNA. When cytokines bind to receptors, JAK phosphorylates the receptors and attracts STAT proteins. The STAT proteins are also phosphorylated and combined with one another to form dimers. The dimers enter the nucleus and bind to DNA, thereby leading to gene transcription.
(§3) EZ Reader from PerkinElmer can be used to detect the phosphorylation of polypeptide substrates catalyzed by kinases. The device is based on microfluidic techniques, and can directly detect fluorescently labeled substrates and products. The separation step is achieved by controlling the pressure and electric field strength in the microfluidic chip. In kinase assays, a product conversion ratio is usually controlled to be 20-30%. A biological test is used to identify inhibitory effects of compounds on JAKs.
(§4) Compound powder was dissolved in DMSO, sealed and stored in a freezer under −20° C. The in-house compound Ref1 was used as a positive control for JAK1, JAK2 and Tyk2 tests, and Ref2 was used as a positive control for JAK3 tests.
(§5) S2.8. Assay buffer: 20 mM HEPES buffer, pH 7.4, 10 mM magnesium chloride, 0.01% bovine serum albumin BSA, 0.0005% Tween-20 and 1 mM dithiothreitol solution.
(§6) S2.9. Stop buffer: 180 mM HEPES buffer, 20 mM ethylenediaminetetraacetic acid and 0.2% coating reagent 3.
(§7) S2.10. Separation buffer: 100 mM HEPES buffer, 10 mM ethylenediaminetetraacetic acid, 0.0005% Tween 20, 0.1% coating reagent 3 and 1% dimethyl sulfoxide.
(§8) The compound was dissolved in dimethyl sulfoxide and diluted to 10 mM concentration, a certain volume of solution was taken and diluted to 0.6 mM concentration, 10 μL of the 0.6 mM dilution was added to a 384-well microplate, and then was diluted 3-fold with a total of 8 concentration points.
(§9) Positive control (HPE1): Ref1, final concentration: 10 μM […]
(§10) Negative control (ZPE): DMSO, final content: 1.6%
(§11) Compounds: maximum final concentration: 10 μM; 3-fold dilution, 8 concentration points and 2 duplicates.
(§12) S4.1. 250 nL of the compound was added to each well of the assay microplate by using ECHO, and centrifuged at 1000 rpm for 1 minute.
(§13) S4.2. 5 μL of the assay buffer was added and agitated for a few seconds to fully dissolve the compound.
(§14) S4.3. 5 μL of 3× substrate solution and 5 μL of 3× kinase solution were added and centrifuged at 800 rpm for 1 minute.
(§15) S4.4. Final concentrations of JAK1, JAK2, JAK3 and Tyk2 kinases in the reaction system were 20 nM, 1 nM, 1 nM and 1 nM respectively.
(§16) S4.5. Incubation at room temperature, where kinases had time differences, and different batches of kinases had time differences.
(§17) S4.6. When 20%-30% of the reaction completed, 15 μL of stop buffer was added to stop the reaction, and centrifuged at 1000 rpm for 2 minutes.
(§18) S4.7. The microplates were placed on EZ Reader for reading.
(§19) S4.8. Readings on EZ Reader were calculated by using a peak height, where product conversion ratio (%)=product/(product+substrate)*100.
(§20) 5. Data Processing: IC50 calculation
(§21) A graphing software Xlfit was used to form a concentration curve of the test compound, and an IC50 value was calculated.
(§22) “A” means “≥10 μM”; “B” means “≥1 μM and <10 μM”; “C” means “≥0.1 μM and <1 μM”; and “D” means “<0.1 μM”.

JAK1 = JAK1 (Homo sapiens, UniProt P23458); assay: JAK kinase inhibition assay (EZ Reader, peptide substrate phosphorylation) - JAK1; format: biochemical; conditions: JAK1 kinase 20 nM; 8 concentration points, max 10 μM
From the text: as §1, §2, §3, §4, §5, §6, §7, §8, §9, §10, §11, §12, §13, §14, §15, §16, §17, §18, §19, §20, §21, §22

Chain of JAK1 (P23458 whole entry): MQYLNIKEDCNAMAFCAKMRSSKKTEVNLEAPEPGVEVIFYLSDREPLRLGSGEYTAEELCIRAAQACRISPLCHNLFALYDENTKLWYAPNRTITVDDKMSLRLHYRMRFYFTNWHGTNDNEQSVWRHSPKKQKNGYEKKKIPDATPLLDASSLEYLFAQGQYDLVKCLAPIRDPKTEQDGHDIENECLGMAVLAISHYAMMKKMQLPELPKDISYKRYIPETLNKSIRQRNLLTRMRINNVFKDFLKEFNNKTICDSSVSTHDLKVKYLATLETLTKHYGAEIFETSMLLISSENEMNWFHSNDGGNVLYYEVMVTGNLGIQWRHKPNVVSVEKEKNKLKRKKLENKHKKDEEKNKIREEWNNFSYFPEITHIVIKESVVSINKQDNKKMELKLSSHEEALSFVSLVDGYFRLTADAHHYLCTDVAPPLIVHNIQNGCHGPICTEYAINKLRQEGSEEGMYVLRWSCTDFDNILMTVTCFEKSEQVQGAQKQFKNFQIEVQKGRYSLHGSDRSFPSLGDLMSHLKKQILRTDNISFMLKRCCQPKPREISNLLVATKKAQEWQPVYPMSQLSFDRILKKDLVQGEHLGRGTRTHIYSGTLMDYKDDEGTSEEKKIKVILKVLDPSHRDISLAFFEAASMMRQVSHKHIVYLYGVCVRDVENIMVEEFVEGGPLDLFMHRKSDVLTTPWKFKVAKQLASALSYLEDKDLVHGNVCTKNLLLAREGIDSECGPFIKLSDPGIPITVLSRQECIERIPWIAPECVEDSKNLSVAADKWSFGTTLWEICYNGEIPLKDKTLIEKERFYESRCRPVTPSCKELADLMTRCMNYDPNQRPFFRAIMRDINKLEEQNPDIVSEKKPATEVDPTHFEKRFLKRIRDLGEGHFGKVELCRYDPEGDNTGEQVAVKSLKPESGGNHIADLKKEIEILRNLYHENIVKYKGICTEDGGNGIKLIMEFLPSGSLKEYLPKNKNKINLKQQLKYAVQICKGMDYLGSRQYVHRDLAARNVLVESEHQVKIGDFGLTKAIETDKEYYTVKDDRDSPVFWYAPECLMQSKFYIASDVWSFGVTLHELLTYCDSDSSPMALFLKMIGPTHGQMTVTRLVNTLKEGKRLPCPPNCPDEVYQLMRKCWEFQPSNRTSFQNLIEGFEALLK
Chain of Tyk2 (P29597 whole entry): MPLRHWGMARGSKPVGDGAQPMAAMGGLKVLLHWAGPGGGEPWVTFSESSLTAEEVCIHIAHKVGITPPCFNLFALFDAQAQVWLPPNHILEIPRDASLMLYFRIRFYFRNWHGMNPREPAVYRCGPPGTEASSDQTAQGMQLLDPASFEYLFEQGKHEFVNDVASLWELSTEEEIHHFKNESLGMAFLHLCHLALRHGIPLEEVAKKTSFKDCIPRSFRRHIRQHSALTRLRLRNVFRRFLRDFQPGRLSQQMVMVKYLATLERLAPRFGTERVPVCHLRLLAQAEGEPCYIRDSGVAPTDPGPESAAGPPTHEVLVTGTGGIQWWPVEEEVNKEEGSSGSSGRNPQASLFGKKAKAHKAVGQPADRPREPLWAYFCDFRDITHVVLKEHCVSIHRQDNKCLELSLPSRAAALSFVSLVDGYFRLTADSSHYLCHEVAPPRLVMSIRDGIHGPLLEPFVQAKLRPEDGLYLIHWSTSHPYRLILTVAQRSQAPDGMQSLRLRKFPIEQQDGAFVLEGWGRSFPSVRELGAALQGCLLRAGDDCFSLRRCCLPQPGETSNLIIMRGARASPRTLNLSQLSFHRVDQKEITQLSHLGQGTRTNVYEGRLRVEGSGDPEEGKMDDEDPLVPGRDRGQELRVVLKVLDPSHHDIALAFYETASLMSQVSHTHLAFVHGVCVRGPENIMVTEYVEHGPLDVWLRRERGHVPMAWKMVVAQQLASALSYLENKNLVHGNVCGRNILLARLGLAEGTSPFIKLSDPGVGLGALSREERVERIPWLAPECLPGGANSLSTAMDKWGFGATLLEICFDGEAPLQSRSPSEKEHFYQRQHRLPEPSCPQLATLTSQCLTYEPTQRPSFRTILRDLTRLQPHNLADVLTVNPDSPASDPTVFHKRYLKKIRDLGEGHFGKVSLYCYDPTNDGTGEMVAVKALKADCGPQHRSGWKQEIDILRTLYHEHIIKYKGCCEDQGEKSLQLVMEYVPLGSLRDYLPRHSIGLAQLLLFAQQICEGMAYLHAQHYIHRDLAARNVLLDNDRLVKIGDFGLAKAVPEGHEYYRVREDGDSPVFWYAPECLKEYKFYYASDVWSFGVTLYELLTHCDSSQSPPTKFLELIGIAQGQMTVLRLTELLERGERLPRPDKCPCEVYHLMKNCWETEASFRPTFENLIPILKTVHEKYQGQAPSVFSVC

SMILES | IC50 (Tyk2) [µM] | IC50 (JAK1) [µM]
Cn1cc(Nc2nccc(-c3ccnc(NC(=O)C4CC4)c3)n2)cn1 [TDM-180773, N-(4-(2-((1-methyl-1H-pyrazol-4-yl)amino)pyrimidin-4-yl)-pyridin-2-yl)cyclopropanemethane] | ≥ 10 | ≥ 10
CC(=O)N1CCN(Cc2ccc(-c3ccnc(Nc4cnn(C)c4)n3)cc2)CC1 [TDM-180789, 1-(4-(4-(2-((1-methyl-1H-pyrazol-4-yl)amino)pyrimidin-4-yl)benzyl)piperazin-1-yl)ethan-1-one] | 1 to 10 | ≥ 10
Cc1cc(-c2ccnc(Nc3cnn(C)c3)n2)ccc1NC(=O)CC(F)(F)F [TDM-180783, 3,3,3-trifluoro-N-(2-methyl-4-(2-((1-methyl-1H-pyrazol-4-yl)amino)pyrimidin-4-yl)phenyl)propanamide] | 1 to 10 | 0.1 to 1
Cn1cc(Nc2nccc(-c3ccc(CN4CCOCC4)cc3)n2)cn1 [TDM-180787, N-(1-methyl-1H-pyrazol-4-yl)-4-(4-(morpholinomethyl)phenyl)pyrimidine-2-amine] | 1 to 10 | 1 to 10
Cn1cc(Nc2nccc(-c3ccc(NC(=O)CO)nc3)n2)cn1 [TDM-180806, 2-hydroxy-N-(5-(2-((1-methyl-1H-pyrazol-4-yl)amino)pyrimidin-4-yl)pyridin-2-yl)acetamide] | 1 to 10 | 1 to 10
Cc1cc(-c2ccnc(Nc3cnn(C)c3)n2)ccc1C(=O)NCC#N [TDM-180779, N-(cyanomethyl)-2-methyl-4-(2-((1-methyl-1H-pyrazol-4-yl)amino)pyrimidin-4-yl)benzamide] | 1 to 10 | 1 to 10
Cn1cc(Nc2nccc(-c3cnc(NC(=O)C4CC4(F)F)cn3)n2)cn1 (centres unmarked) [TDM-180892, 2,2-difluoro-N-(5-(2-((1-methyl-1H-pyrazol-4-yl)amino)pyrimidin-4-yl)pyrazin-2-yl)cyclopropane-1-formamide] | 1 to 10 | 0.1 to 1
Cn1cc(Nc2nccc(-c3cnc(NC(=O)CC(F)(F)F)nc3)n2)cn1 [TDM-180887, 3,3,3-trifluoro-N-(2-((1-methyl-1H-pyrazol-4-yl)amino)-[4,5′-bipyrimidin]-2′-yl)propanamide] | 1 to 10 | 0.1 to 1
Cn1cc(Nc2nccc(-n3ccc4c(NC(=O)C5CC5(F)F)cccc43)n2)cn1 (centres unmarked) [TDM-180885, 2,2-difluoro-N-(1-(2-((1-methyl-1H-pyrazol-4-yl)amino)pyrimidin-4-yl)-1H-indol-4-yl)cyclopropane-1-carboxamide] | 0.1 to 1 | < 0.1
Cn1cc(Nc2nccc(-c3ccnc(NC(=O)CC#N)c3)n2)cn1 [TDM-180774, 2-cyano-N-(4-(2-((1-methyl-1H-pyrazol-4-yl)amino)pyrimidin-4-yl)pyridin-2-yl)acetamide] | ≥ 10 | ≥ 10
Cn1cc(Nc2nccc(-c3ccc(NC(=O)CC(F)(F)F)c4[nH]ccc34)n2)cn1 [TDM-180870, 3,3,3-trifluoro-N-(4-(2-((1-methyl-1H-pyrazol-4-yl)amino)pyrimidin-4-yl)-1H-indol-7-yl)propanamide] | 0.1 to 1 | < 0.1
CCS(=O)(=O)Nc1ccc(-c2ccnc(Nc3cnn(C)c3)n2)cn1 [TDM-180829, N-(5-(2-((1-methyl-1H-pyrazol-4-yl)amino)pyrimidin-4-yl)pyridin-2-yl)ethanesulfonamide] | 1 to 10 | 1 to 10
Cn1cc(Nc2nccc(-n3ccc4c(NC(=O)CC(F)(F)F)cccc43)n2)cn1 [TDM-180882, 3,3,3-trifluoro-N-(1-(2-((1-methyl-1H-pyrazol-4-yl)amino)pyrimidin-4-yl)-1H-indol-4-yl)propanamide] | 0.1 to 1 | < 0.1
Cn1cc(Nc2nccc(-c3ccnc(NC(=O)CC(F)(F)F)c3)n2)cn1 [TDM-180790, 3,3,3-trifluoro-N-(4-(2-((1-methyl-1H-pyrazol-4-yl)amino)pyrimidin-4-yl)pyridin-2-yl)propanamide] | ≥ 10 | ≥ 10
Cn1cc(Nc2nccc(-c3ccc(C(=O)NC4CC4)cc3)n2)cn1 [TDM-180852, N-cyclopropyl-4-(2-((1-methyl-1H-pyrazol-4-yl)amino)pyrimidin-4-yl)benzamide] | 1 to 10 | 1 to 10
Cc1cc(-c2ccnc(Nc3cnn(C)c3)n2)ccc1C(=O)NCC#N [TDM-180784, N-(cyanomethyl)-2-methyl-4-(2-((1-methyl-1H-pyrazol-4-yl)amino)pyrimidin-4-yl)benzamide] |  | 0.1 to 1

Now from value to compound:

IC50 (Tyk2) [µM] | IC50 (JAK1) [µM] | SMILES
≥ 10 | 1 to 10 | CCCS(=O)(=O)Nc1ccc(-c2ccnc(Nc3cnn(C)c3)n2)cn1 [TDM-180901, N-(5-(2-((1-methyl-1H-pyrazol-4-yl)amino)pyrimidin-4-yl)pyridin-2-yl)propane-1-sulfonamide]
0.1 to 1 | 0.1 to 1 | Cn1cc(Nc2nccc(-c3ccc(NS(=O)(=O)CCc4ccccc4)cc3)n2)cn1 [TDM-180894, N-(4-(2-((1-methyl-1H-pyrazol-4-yl)amino)pyrimidin-4-yl)phenyl)-2-phenylethane-1-sulfonamide]
≥ 10 | 0.1 to 1 | Cn1cc(Nc2nccc(-c3ccc(NC(=O)CC#N)c4cc[nH]c34)n2)cn1 [TDM-180923]
0.1 to 1 | < 0.1 | Cn1cc(Nc2nccc(-c3ccc(NC(=O)C4CC4(F)F)c4[nH]ncc34)n2)cn1 (centres unmarked) [TDM-180899, 2,2-difluoro-N-(4-(2-((1-methyl-1H-pyrazol-4-yl)amino)pyrimidin-4-yl)-1H-indazol-7-yl)cyclopropane-1-carboxamide]
0.1 to 1 | 0.1 to 1 | Cn1cc(Nc2nccc(-c3ccc(NC(=O)CC4CC4)c4[nH]ccc34)n2)cn1 [TDM-180920]
1 to 10 | 1 to 10 | Cn1cc(Nc2nccc(-c3ccc(NS(=O)(=O)CCCF)nc3)n2)cn1 [TDM-180903, 3-fluoro-N-(5-(2-((1-methyl-1H-pyrazol-4-yl)amino)pyrimidin-4-yl)pyridin-2-yl)propane-1-sulfonamide]
≥ 10 | 1 to 10 | Cn1cc(Nc2nccc(-c3ccc(NC(=O)C4CC4(F)F)c4cc[nH]c34)n2)cn1 (centres unmarked) [TDM-180929, 2,2-difluoro-N-(7-(2-((1-methyl-1H-pyrazol-4-yl)amino)pyrimidin-4-yl)-1H-indol-4-yl)cyclopropane-1-carboxamide]
≥ 10 | ≥ 10 | Cn1cc(Nc2nccc(-c3ccc(NC(=O)C4CC4)c4cc[nH]c34)n2)cn1 [TDM-180926, N-(7-(2-((1-methyl-1H-pyrazol-4-yl)amino)pyrimidin-4-yl)-1H-indole-4-yl)cyclopropanecarboxamide]
≥ 10 | 1 to 10 | Cc1cc(-c2ccnc(Nc3cnn(C)c3)n2)cnc1NC(=O)C1CC1 [TDM-180910, N-(3-methyl-5-(2-((1-methyl-1H-pyrazol-4-yl)amino)pyrimidin-4-yl)pyridin-2-yl)cyclopropanemethane]
1 to 10 | 0.1 to 1 | Cn1cc(Nc2nccc(-n3ccc4c(NC(=O)CC5CC5)cccc43)n2)cn1 [TDM-180911, 2-cyclopropyl-N-(1-(2-((1-methyl-1H-pyrazol-4-yl)amino)pyrimidin-4-yl)-1H-indol-4-yl)acetamide]
0.1 to 1 | 0.1 to 1 | Cn1cc(Nc2nccc(-c3ccc(NC(=O)CC#N)c4[nH]ncc34)n2)cn1 [TDM-180898, 2-cyano-N-(4-(2-((1-methyl-1H-pyrazol-4-yl)amino)pyrimidin-4-yl)-1H-indazole-7-yl)acetamide]
